Measurements: patent publication US11932595B2, “VDR-silent vitamin D derivative as inhibitors of SREBP and pharmaceutical use thereof” (KYOTO UNIVERSITY, priority 2020, dated 2024)

How the values were obtained:
[1] = Short-term in vivo model: serum calcium levels; design: species or system mice; conditions: 10 mg/kg intraperitoneally, after 4 days, n=3, FIG. 5D
Method: To quickly and simultaneously examine their SREBP inhibitory activity and VDR-derived calcemic activity in vivo, a short-term in vivo screening system of mice was established. With reference to the previous report (Horton, J. D. et al. Proc. Natl. Acad. Sci. U.S.A. 1998, 95, 5987-5992.), mice were fasted for 48 hours then refed a special diet (low fat, high carbohydrate diet, lacking in vitamin D) for 48 hours before sacrifice.
(§1) C57BL/6 and oh/oh mice were purchased from CLEA Japan and Charles River Japan, Inc., respectively. Animal experiments were carried out at the University of Tokyo and Charles River Laboratories. Low fat, high carbohydrate diet, lacking vitamin D was custom made by Research Diets, Inc. Compounds disclosed herein and 25(OH)D3 were dissolved in ethanol/Tween 20 (9:1) to obtain stock solution and then diluted 10-fold with PBS immediately before administration to mice.
10 mg/kg compounds or vehicle control were administered intraperitoneally once every 24 hours during the fasting and refeeding.
(§2) Following sacrifice, mouse livers were fixed in 10% neutral-buffered formalin, embedded in paraffin, sectioned, and stained with H&E. Hepatic lipids were extracted with chloroform/methanol (2:1 v/v), and TG and cholesterol contents were measured with Triglyceride Reagent Set (Pointe Scientific) and Cholesterol E (Wako), respectively. Serum levels of ALT, TG, glucose, cholesterol, and calcium were measured in SRL Inc. (Tokyo). All experiments were approved by the Ethics Committee for Animal Experimentation of the University of Tokyo and Charles River Laboratories Japan, and were conducted in accordance with the Guidelines for the Care and Use of Laboratory Animals.
Serum calcium levels in the mice treated with vehicle, compounds, or 25(OH)D3 were determined (means±SEM, n=3 per group), *p<0.05 (FIG. 5D).

ob/ob mice = assay: Long-term in vivo model of fatty liver in ob/ob mice
Method: as §1, §2
Six-week-old ob/ob mice were treated with 10 mg/kg KK-052, 10 mg/kg 25(OH)D3, or vehicle control 5 times per week for 4 weeks (FIG. 7A).
Body weights of ob/ob mice were measured and data are given as means±SEM (25(OH)D3, n=5; others, n=8), *p<0.05 (FIG. 7B).
Hepatic TG and cholesterol contents were measured in KK-052- or vehicle-treated ob/ob mice (means±SEM), *p<0.05 (FIG. 7D).
Serum levels of ALT, TG, total cholesterol, glucose, and calcium were measured in KK-052- or vehicle-treated ob/ob mice (means±SEM), *p<0.05 (FIG. 7E).

[2] = 10 mg/kg 5 times per week for 4 weeks
[3] = ob/ob mice, versus vehicle, FIG. 7D

Row | SMILES | serum calcium levels [1] | general condition of treated ob/ob mice (ob/ob mice; [2]) | weight gain (ob/ob mice; ob/ob mice, 10 mg/kg 5 times per week for 4 weeks, FIG. 7B) | liver steatosis (H&E histology) (ob/ob mice; ob/ob mice, 10 mg/kg, 4 weeks, FIG. 7C) | serum calcium levels versus vehicle-treated group (ob/ob mice; ob/ob mice, 10 mg/kg, 4 weeks, FIG. 7E) | serum level of TG (ob/ob mice; ob/ob mice, FIG. 7E) | serum level of alanine aminotransferase (ALT) (ob/ob mice; ob/ob mice, FIG. 7E) | serum level of glucose (ob/ob mice; ob/ob mice, FIG. 7E) | hepatic cholesterol content (ob/ob mice; [3]) | hepatic triglyceride (TG) content (ob/ob mice; [3])
1 | C[C@H](CCC(F)(F)C(C)(C)O)[C@H]1CC[C@H]2/C(=C/Cn3nnnc3-c3ccccc3)CCC[C@]12C [Compound 50, (R)-3,3-Difluoro-2-methyl-6-{(1R,3aS,7aR,E)-7a-methyl-4-[2-(5-phenyl-1H-tetrazol-1-yl)ethylidene]octahydro-1H-inden-1-yl}heptan-2-ol] | no detectable increase | appeared healthy until the end of the experiments | slightly but significantly decreased | attenuated | no detectable difference | significantly decreased | significantly decreased | significantly decreased | significantly decreased | significantly decreased
2 | C=C1CC[C@H](O)C/C1=C/C=C1\CCC[C@]2(C)[C@@H]([C@H](C)CCCC(C)(C)O)CC[C@@H]12 [25(OH)D3, 25-hydroxyvitamin D3, reference compound] | markedly increased | became sick due to hypercalcemia and euthanized at 1 week | – | – | – | – | – | – | – | –
